Source: ChEMBL document CHEMBL1138875, “Design and synthesis of substituted pyridine derivatives as HIF-1alpha prolyl hydroxylase inhibitors” (Bioorg Med Chem Lett, 2006)

Target: Egl nine homolog 1 (Homo sapiens, UniProt Q9GZT9)
Assay: Inhibition of EGLN1

Chain of Egl nine homolog 1 (Q9GZT9 whole entry): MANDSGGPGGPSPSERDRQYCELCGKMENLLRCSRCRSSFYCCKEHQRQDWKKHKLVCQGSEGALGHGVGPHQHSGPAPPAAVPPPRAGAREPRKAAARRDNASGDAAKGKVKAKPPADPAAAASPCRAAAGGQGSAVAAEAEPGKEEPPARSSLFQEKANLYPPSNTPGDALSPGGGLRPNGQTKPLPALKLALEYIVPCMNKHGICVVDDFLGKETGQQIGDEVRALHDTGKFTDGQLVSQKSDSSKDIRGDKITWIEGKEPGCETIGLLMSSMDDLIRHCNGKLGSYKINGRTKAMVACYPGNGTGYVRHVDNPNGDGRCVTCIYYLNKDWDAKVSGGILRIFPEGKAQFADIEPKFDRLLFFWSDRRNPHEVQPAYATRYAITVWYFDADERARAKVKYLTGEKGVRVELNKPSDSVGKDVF

Row | IC50 | Structure (SMILES)
1 | > 100 µM | O=C(O)CNC(=O)c1ccccn1
2 | > 100 µM | O=C(O)CNC(=O)c1ccc(-c2cccc(Cl)c2)cn1
3 | > 100 µM | O=C(O)CNC(=O)c1cc(-c2ccc(Cl)cc2)ccn1
